# Laboratory results as given in patent US20010051630A1, “Use of hydroxylamine derivatives, and method and preparations for increasing the tolerance of field crops against weather stresses” (priority 1997, published 2001).
# Marks after values point to notes of the source that are not given here.
# Legend:
# [1] = tested on: maize of low chilling tolerance (LT) population; assay: CSVT, maize population of low chilling tolerance (LT); assay type: in vivo
# Procedure: (§1) In this experiment the tolerance of maize, soybean and pepper seeds treated with the active agent against cold was tested. This test imposed temperature and oxygen deficiency stresses on the seeds and was carried out according to Barla-Szabó and Dolinka CSVT (Complex Stressing Vigour Test). For a single test, two hundred seeds were soaked for 48 hours at 25° C. and another 48 hours at 5° C in 150 ml distilled water containing the active agent in 10 mg/l concentration. Following the 96 hours of soaking, the seeds were further germinated between rolled wet paper for 96 hours at 25° C. There were 25 seeds in each roll, the rolls were placed vertically into containers and covered with a plastic bag in order to reduce evaporation. During the whole procedure the seeds were kept in darkness.
# (§2) At the end of the experiment the number of normally developing and ungerminated seeds were recorded. The length of the normal seedlings was measured and the average length of the five longest seedlings was calculated. Seedlings longer than 0.33 times the average length of the five longest seedlings were considered to be of high vigour, and low vigour seedlings were shorter than this length.
# (§3) In the case of a further experiment with maize of low chilling tolerance (LT) and high chilling tolerance (HT) populations [Ref: P. Landi, E. Frascaroli, A. Lovato; EUPHYTICA 64 21-29 (1992)], the following positive effects were found (Table 3.).
# Mo 17 maize inbred line = assay: Chilling tolerance of maize in a gradient chamber; assay type: in vivo
# Procedure: The experiment was performed using the Mo 17 maize inbred line. The seeds were coated with a 2% solution of the examined compound dissolved in 2 ml polyvinylalcohol before germination, where the above quantity of solution is applied for 100 seeds. The seeds were germinated for 3 days wrapped in wet filter paper, they were sown and then cultivated in gradient chamber for 6 weeks. In the gradient chamber, the temperature was maintained on a scale between 18 and 12° C., with differences of 1° C. This was followed by a one week regeneration at 23/20° C. temperature.
# In the experiment, the length of the plants was measured 16, 31 and 43 days after the sowing, and at the end of the experiment the fresh weight of the plants was measured. The experiment was performed on 4 plants at each temperature and by each treatment.
# [2] = tested on: maize of high chilling tolerance (HT) population; assay: CSVT, maize population of high chilling tolerance (HT); assay type: in vivo
# Procedure: as §1, §2, §3
# green peppers = assay: CSVT, green peppers; assay type: in vivo, pepper
# Procedure: as §1, §2
# Under the circumstances of the CSVT test, they increased the length of the sprouts and the roots along with the proportion of the high vigour seedlings. […]
# McCall soybeans = assay: CSVT with PVA-pearled McCall soybeans, relative length; assay type: in vivo, soybean; conditions: 2.5 mg in 1 ml 2.5% PVA per 100 seeds
# Procedure: as §1
# In a further CSVT experiment also using McCall soybeans, polyvinylalcohol (PVA) was applied for pearling the seeds. The 2.5 mg doses of the active agents were dissolved in 1 ml of 2.5% PVA solution, and this quantity was applied to 100 pieces of seeds. The improvement of the chilling tolerance is observed by the significant elongation of the germ and the roots.
smiles,measurement,setting,value
"CC(C)(C)NCC(O)CONC(=O)c1cccc(C(F)(F)F)c1.Cl (stereo not drawn) [Compound 1, N-[2-hydroxy-3-(1,1-dimethylethyl-amino)propoxy]-3-trifluoromethyl-benzamide monohydrochloride]","Ratio of high vigour plants %, LT",[1],94* %
same,Length (cm),"Mo 17 maize inbred line; 12° C., 16 days",5.0 cm
same,Length (cm),"Mo 17 maize inbred line; 12° C., 31 days",7.9 cm
same,"FW (g), fresh weight","Mo 17 maize inbred line; 12° C., 43 days",1.2 g
same,Length (cm),"Mo 17 maize inbred line; 12° C., 43 days",18.9 cm
same,Length (cm),"Mo 17 maize inbred line; 13° C., 16 days",6.0 cm
same,Length (cm),"Mo 17 maize inbred line; 13° C., 31 days",10.1 cm
same,"FW (g), fresh weight","Mo 17 maize inbred line; 13° C., 43 days",1.0 g
same,Length (cm),"Mo 17 maize inbred line; 13° C., 43 days",16.0 cm
same,Length (cm),"Mo 17 maize inbred line; 14° C., 16 days",7.6 cm
same,Length (cm),"Mo 17 maize inbred line; 14° C., 31 days",15.4 cm
same,"FW (g), fresh weight","Mo 17 maize inbred line; 14° C., 43 days",2.7 g
same,Length (cm),"Mo 17 maize inbred line; 14° C., 43 days",25.9 cm
same,Length (cm),"Mo 17 maize inbred line; 15° C., 16 days",10.0 cm
same,Length (cm),"Mo 17 maize inbred line; 15° C., 31 days",17.7 cm
same,"FW (g), fresh weight","Mo 17 maize inbred line; 15° C., 43 days",3.6 g
same,Length (cm),"Mo 17 maize inbred line; 15° C., 43 days",28.5 cm
same,Length (cm),"Mo 17 maize inbred line; 16° C., 16 days",15.2 cm
same,Length (cm),"Mo 17 maize inbred line; 16° C., 31 days",24.8 cm
same,"FW (g), fresh weight","Mo 17 maize inbred line; 16° C., 43 days",4.5 g
same,Length (cm),"Mo 17 maize inbred line; 16° C., 43 days",32.3 cm
same,Length (cm),"Mo 17 maize inbred line; 17° C., 16 days",17.0 cm
same,Length (cm),"Mo 17 maize inbred line; 17° C., 31 days",27.7 cm
same,"FW (g), fresh weight","Mo 17 maize inbred line; 17° C., 43 days",5.5 g
same,Length (cm),"Mo 17 maize inbred line; 17° C., 43 days",36.5 cm
same,Length (cm),"Mo 17 maize inbred line; 18° C., 16 days",13.2 cm
same,Length (cm),"Mo 17 maize inbred line; 18° C., 31 days",28.4 cm
same,"FW (g), fresh weight","Mo 17 maize inbred line; 18° C., 43 days",6.0 g
same,Length (cm),"Mo 17 maize inbred line; 18° C., 43 days",37.0 cm
same,"Ratio of high vigour plants %, HT",[2],98* %
same,Ratio of high vigour plants (%),green peppers,47* %
same,"Relative length (control = 100), germ",McCall soybeans,106
same,"Relative length (control = 100), root",McCall soybeans,128
